From ChEMBL document CHEMBL1201862, “PubChem BioAssay data set” (2004) come the findings set out here.

Test systems include SN12C; ACHN; PC-3; MCF7; SF-295; A549; 786-0; OVCAR-4; SF-268; HL-60; SK-OV-3; SR; IGROV-1; SNB-19; DU-145; BT-549; TK-10; HCT-116; OVCAR-3; CCRF-CEM.
What all share (assay): NCI anticancer screen, dose series, 48 h

Structures are written as SMILES.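 Briefly, cells in 96-well plates were exposed to five compound concentrations for 48 h, and endpoints were estimated by linear interpolation. GI50: concentration for 50% inhibition of growth.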 Active and inactive are the calls of the source. Rule as the data show it: active = GI50 up to about 1.1 µM and inactive = higher. A value given as a limit tells only on which side of the number the result lay.

With `COC(=O)c1nn2ccc3ccccc3c2c1C(=O)OC`, the GI50 with SN12C was 58.1 µM (inactive); with ACHN, > 100 µM (inactive); in the assay with PC-3 it was 47.8 µM (inactive); in the assay with MCF7 it was > 100 µM (inactive); in the assay with SF-295, > 100 µM (inactive); in the assay on A549, > 100 µM (inactive). Also, the GI50 is 75.2 µM (inactive) in the assay on 786-0; > 100 µM (inactive) in the assay with OVCAR-4; > 100 µM (inactive) with SF-268; 21.3 µM (inactive) with HL-60; > 100 µM (inactive) in the assay on SK-OV-3; 41.1 µM (inactive) with SR. Moreover, the GI50 in the assay with IGROV-1 is 88.9 µM (inactive); with SNB-19 it was > 100 µM (inactive); in the assay on DU-145, > 100 µM (inactive); with BT-549, 63.5 µM (inactive); in the assay with TK-10, > 100 µM (inactive); in the assay with HCT-116, 65.9 µM (inactive).
With `CC(=O)OC(C)(C)CCC(=O)[C@](C)(O)[C@H]1[C@H](O)C[C@@]2(C)[C@@H]3CCc4c(cc(OC5OC(CO)C(O)C(O)C5O)c(O)c4C)C3(C)C(=O)C[C@]12C` (some centres undefined), the GI50 in the assay on SN12C, with OVCAR-3, in the assay on ACHN, in the assay on PC-3, in the assay on MCF7 and in the assay with SF-295 was > 100 µM (inactive) throughout. In addition, the GI50 in the assay with A549, with 786-0, in the assay on CCRF-CEM, with OVCAR-4, with SF-268 and with SK-OV-3 was > 100 µM (inactive) each time. The GI50 in the assay with SR, in the assay with IGROV-1, in the assay with SNB-19, in the assay with DU-145, in the assay with BT-549 and in the assay with TK-10 was > 100 µM (inactive) each time. Moreover, the GI50 in the assay on HCT-116 was > 100 µM (inactive).
Take `c1cc(-c2sc(-c3ccncc3)c(-c3ccncc3)c2-c2ccncc2)ccn1`: the GI50 in the assay with SN12C was 17.6 µM (inactive); with OVCAR-3, 16.9 µM (inactive); in the assay on ACHN, 14.8 µM (inactive); in the assay on PC-3 it was 19.8 µM (inactive); in the assay with MCF7, 19.4 µM (inactive); in the assay on SF-295 it was 17.3 µM (inactive). Besides, the GI50 in the assay with A549 was 17.2 µM (inactive); in the assay with 786-0 it was 14.1 µM (inactive); in the assay on OVCAR-4 it was 33 µM (inactive); with SF-268, 15.2 µM (inactive); in the assay on SK-OV-3 it was 20.9 µM (inactive); in the assay on SR it was 14.2 µM (inactive). In addition, the GI50 is 18.2 µM (inactive) in the assay with IGROV-1; 18.4 µM (inactive) in the assay with SNB-19; 23 µM (inactive) with DU-145; 18.7 µM (inactive) with BT-549; 15.2 µM (inactive) in the assay on TK-10; 12.9 µM (inactive) with HCT-116.
Take `C=CC(C)(C)n1cc(C2=C3OC(=O)C(c4cn(C(C)(C)C=C)c5ccccc45)=C3OC2=O)c2ccccc21`: the GI50 in the assay with SN12C, with OVCAR-3, in the assay with ACHN, in the assay on PC-3, in the assay with MCF7 and in the assay with SF-295 was > 100 µM (inactive) in each case. Further, the GI50 in the assay with A549, in the assay with 786-0, in the assay with CCRF-CEM, with OVCAR-4, in the assay with SF-268 and in the assay on HL-60 was > 100 µM (inactive) throughout. Moreover, the GI50 in the assay with SR, in the assay with IGROV-1, with SNB-19, with DU-145, in the assay on BT-549 and with TK-10 was > 100 µM (inactive) in each case. In addition, the GI50 in the assay on HCT-116 was > 100 µM (inactive).
`COC(=O)CCC1=C(CC(=O)OC)C(C)(OC)N/C1=N/C(=O)OCc1ccccc1` (centres undefined): the GI50 in the assay on SN12C, with ACHN, with PC-3, in the assay on MCF7, in the assay on SF-295 and in the assay with A549 was > 100 µM (inactive) throughout. In addition, the GI50 in the assay on 786-0, in the assay on CCRF-CEM, in the assay with OVCAR-4, in the assay with SF-268, in the assay on SK-OV-3 and in the assay on SR was > 100 µM (inactive) in each case. The GI50 in the assay on IGROV-1, with SNB-19, with DU-145, with BT-549, with TK-10 and in the assay on HCT-116 was > 100 µM (inactive) in each case.
Regarding `Cc1cccc(-n2c(C)nc3ccc(NC(=S)Nc4ccccc4)cc3c2=O)c1`, the GI50 was > 100 µM (inactive) with SN12C; 32.4 µM (inactive) in the assay with OVCAR-3; 53.5 µM (inactive) in the assay with ACHN; 41.6 µM (inactive) with PC-3; 67 µM (inactive) in the assay on MCF7; > 100 µM (inactive) in the assay with SF-295. The GI50 was > 100 µM (inactive) in the assay on 786-0; 60.8 µM (inactive) in the assay on OVCAR-4; 66.5 µM (inactive) with SF-268; 37.4 µM (inactive) in the assay with HL-60; > 100 µM (inactive) with SR; > 100 µM (inactive) in the assay on IGROV-1. Besides, the GI50 was > 100 µM (inactive) in the assay on SNB-19; 87.7 µM (inactive) with DU-145; 48.5 µM (inactive) in the assay with BT-549; > 100 µM (inactive) in the assay on TK-10; 46.5 µM (inactive) in the assay with HCT-116.
As for `Cc1cc(=O)oc2c(C)c(O)ccc12`, the GI50 in the assay with SN12C, with OVCAR-3, with ACHN, in the assay with PC-3, in the assay with MCF7 and with SF-295 was > 100 µM (inactive) in each case. Moreover, the GI50 in the assay with A549 was > 100 µM (inactive); with 786-0, > 100 µM (inactive); with CCRF-CEM it was > 100 µM (inactive); in the assay with OVCAR-4 it was > 100 µM (inactive); in the assay with SF-268 it was > 100 µM (inactive); in the assay with HL-60, 48.6 µM (inactive). In addition, the GI50 is > 100 µM (inactive) in the assay on SR; > 100 µM (inactive) with IGROV-1; > 100 µM (inactive) with SNB-19; > 100 µM (inactive) in the assay on DU-145; 35.4 µM (inactive) in the assay on BT-549; > 100 µM (inactive) in the assay on HCT-116.
Consider `CSC1=N[C@H](c2ccccc2)CS1`, for which the GI50 in the assay with SN12C, in the assay with OVCAR-3, in the assay on ACHN, in the assay on PC-3, in the assay with MCF7 and in the assay with SF-295 was > 100 µM (inactive) in each case. The GI50 in the assay on A549, in the assay on 786-0, in the assay on CCRF-CEM, in the assay on OVCAR-4, with IGROV-1 and in the assay on SNB-19 was > 100 µM (inactive) each time. Moreover, the GI50 in the assay on DU-145, with BT-549, with TK-10 and in the assay with HCT-116 was > 100 µM (inactive) throughout.
For `CCOC(=O)c1ccc(-c2ccc(Cl)cc2)[nH]1`, the GI50 was > 10 µM (inactive) in the assay with SN12C; > 10 µM (inactive) in the assay with OVCAR-3; > 10 µM (inactive) in the assay with ACHN; 0.0161 µM (active) in the assay on PC-3; > 10 µM (inactive) with SF-295; > 10 µM (inactive) with A549. For the same compound, the GI50 in the assay on 786-0, in the assay on CCRF-CEM, in the assay on OVCAR-4, in the assay on SF-268, in the assay with HL-60 and in the assay on SK-OV-3 was > 10 µM (inactive) in each case. In addition, the GI50 in the assay on SR, with IGROV-1, in the assay on SNB-19, in the assay on DU-145, in the assay with BT-549 and with TK-10 was > 10 µM (inactive) each time. Further, in the assay with HCT-116, the GI50 is > 10 µM (inactive).
For the compound `Cc1ccc(C(=O)Nc2ccc(S(=O)(=O)O)c3cc(S(=O)(=O)O)cc(S(=O)(=O)O)c23)cc1NC(=O)c1cccc(N)c1`, the GI50 with SN12C, in the assay on OVCAR-3, in the assay with ACHN, with PC-3, in the assay on MCF7 and with SF-295 was > 100 µM (inactive) each time. In addition, the GI50 with A549, with 786-0, in the assay with CCRF-CEM, with OVCAR-4, in the assay with SF-268 and with HL-60 was > 100 µM (inactive) throughout. Moreover, the GI50 with SK-OV-3, with SR, in the assay on IGROV-1, in the assay with SNB-19, with BT-549 and in the assay on TK-10 was > 100 µM (inactive) in each case.
For the compound `CCOC(=O)c1nc2cc(C(F)(F)F)ccc2nc1Oc1ccc(C(=O)OC)cc1`, the GI50 with SN12C, in the assay with OVCAR-3, in the assay on ACHN, in the assay with PC-3, with MCF7 and in the assay with SF-295 was > 100 µM (inactive) throughout. Further, the GI50 in the assay on A549 is > 100 µM (inactive); with 786-0, > 100 µM (inactive); in the assay on CCRF-CEM, 97.1 µM (inactive); in the assay with OVCAR-4, 78.7 µM (inactive); with SF-268, > 100 µM (inactive); in the assay on HL-60, 35.1 µM (inactive). Moreover, the GI50 in the assay with SR, in the assay with IGROV-1, in the assay on SNB-19, in the assay with DU-145, with BT-549 and with TK-10 was > 100 µM (inactive) each time. Moreover, the GI50 with HCT-116 is > 100 µM (inactive).
